# In patent US8232272B2, “Benzimidazoledihydrothiadiazinone derivatives as fructose-1,6-bisphosphatase inhibitors, and pharmaceutical compositions comprising same” (Merck Patent Gesellschaft mit beschränkter Haftung, priority 2007, dated 2012):
# Structures can show the parent of a compound that is named as a salt.
# Legend:
# [1] = tested on: rat hepatocyte primary cultures (hepatic glucose production); assay: Hepatic production of glucose in rat hepatocyte primary cultures; format: cell-based, Wistar rat; conditions: rat hepatocytes incubated 3 hours with dihydroxyacetone (DHA) as substrate, control = DHA without compounds
# Description: Effects of the Various Compounds Described Previously on the Hepatic Production of Glucose in Rat Hepatocyte Primary Cultures
# The hepatocytes are isolated from Wistar rat liver via the collagenase perfusion technique described by Seglen (Methods Cell Biol. 1975; 13, 29-83). The cell viability is confirmed by the exclusion test with trypan blue. The isolated hepatocytes are suspended in a William's medium supplemented with foetal calf serum (10%) in 6-well plates. After a 4-hour attachment period, the medium is aspirated to remove the cell debris and replaced with a serum-free and glucose-free MEM medium. The hepatocytes are then cultured for 16 to 18 hours (37° C.; 5% CO2). At the end of culturing and after having aspirated the medium, the glucose production is measured by incubating the hepatocytes for 3 hours in a Krebs buffer supplemented with dihydroxyacetone (DHA) as neoglucogenesis substrate, in the presence or absence of the various compounds described previously. The amount of glucose in the medium is measured in each culture well via a test with glucose oxidase (GOD). The cell protein content is evaluated via the Lowry method. The results are expressed in nanomoles of glucose produced per mg of cell protein. The activity of the test compounds is expressed as a percentage of the control (production of glucose in the presence of DHA but without compounds).
# Inhibition of Hepatic Glucose Production
# [2] = target: T1, recombinant human liver fructose-1,6-bisphosphatase (Homo sapiens, UniProt P09467); assay: Inhibition of recombinant human liver fructose-1,6-bisphosphatase (spectrophotometric coupled enzyme assay); format: biochemical; conditions: 0.167 mM fructose-1,6-bisphosphate, pH 7.5, room temperature, 30 minutes at 340 nm, read-out: Inhibition of human F-1,6-BPase IC50
# T1 sequence (P09467 1-338): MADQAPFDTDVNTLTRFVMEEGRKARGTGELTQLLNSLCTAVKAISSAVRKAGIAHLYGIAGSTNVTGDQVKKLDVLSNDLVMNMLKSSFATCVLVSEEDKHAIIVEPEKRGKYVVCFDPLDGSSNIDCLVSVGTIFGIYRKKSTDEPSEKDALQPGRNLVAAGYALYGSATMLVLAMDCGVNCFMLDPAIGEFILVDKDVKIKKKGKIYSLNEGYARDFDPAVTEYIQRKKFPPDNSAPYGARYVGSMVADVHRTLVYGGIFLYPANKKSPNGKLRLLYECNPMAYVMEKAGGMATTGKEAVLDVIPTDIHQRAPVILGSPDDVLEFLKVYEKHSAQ
# Description: […]
Compound,IC50 [2] [µM],melting point [°C],Hepatic glucose production. % of the control at 30 μM [1]
"COc1cccc(-c2nc3cc(C4=NNC(=O)SC4C)ccc3[nH]2)c1 (stereo not shown) [Example 26, 5-[2-(3-methoxyphenyl)-1H-benzimidazol-5-yl]-6-methyl-3,6-dihydro-2H-1,3,4-thiadiazin-2-one]",,,38 % of the control
"CCn1c(-c2cccc(F)c2)nc2cc(C3=NNC(=O)SC3)ccc21 [Example 11-4, 5-[1-ethyl-2-(3-fluorophenyl)-1H-benzimidazol-5-yl]-3,6-dihydro-2H-1,3,4-thiadiazin-2-one]",,214 to 216,
"CCCC1SC(=O)NN=C1c1ccc2c(c1)nc(-c1cccc(C(F)(F)F)c1)n2C (stereo not shown) [Example 11-5, 5-{1-methyl-2-[3-(trifluoromethyl)phenyl]-1H-benzimidazol-5-yl}-6-propyl-3,6-dihydro-2H-1,3,4-thiadiazin-2-one]",,190 to 192,
"COc1cccc(-c2nc3cc(C4=NNC(=O)SC4)ccc3n2CC(C)C)c1 [Example 11, 5-[1-isobutyl-2-(3-methoxyphenyl)-1H-benzimidazol-5-yl]-3,6-dihydro-2H-1,3,4-thiadiazin-2-one]",,207 to 209,
COc1cccc(-c2nc3cc(C4=NNC(=O)SC4C)ccc3n2CC(C)C)c1 (stereo not shown),,100 to 105,
"CCn1c(-c2cccc(OC)c2)nc2cc(C3=NNC(=O)SC3)ccc21 [Example 11-6, 5-[1-ethyl-2-(3-methoxyphenyl)-1H-benzimidazol-5-yl]-3,6-dihydro-2H-1,3,4-thiadiazin-2-one]",,221 to 223,

# Now from value to molecule, other results behind:
IC50 [2] [µM],melting point [°C],Compound,Hepatic glucose production. % of the control at 30 μM [1]
8.5,,"CCCN1N=C(c2ccc3c(c2)nc(-c2cccc(F)c2)n3C)C(C)SC1=O (stereo not shown) [Example 12-6, 5-[2-(3-fluorophenyl)-1-methyl-1H-benzimidazol-5-yl]-6-methyl-3-propyl-3,6-dihydro-2H-1,3,4-thiadiazin-2-one]",
3.6,,"CC1SC(=O)NN=C1c1ccc2[nH]c(-c3ccc(-n4ccnc4)cc3)nc2c1 (stereo not shown) [Example 26-4, 5-{2-[4-(1H-imidazol-1-yl)phenyl]-1H-benzimidazol-5-yl}-6-methyl-3,6-dihydro-2H-1,3,4-thiadiazin-2-one dihydrochloride]",28 % of the control
7,,"CC1SC(=O)N(C(C)C)N=C1c1ccc2c(c1)nc(-c1cccc(F)c1)n2C (stereo not shown) [Example 12-3, 5-[2-(3-fluorophenyl)-1-methyl-1H-benzimidazol-5-yl]-3-isopropyl-6-methyl-3,6-dihydro-2H-1,3,4-thiadiazin-2-one]",
36,,"COc1cccc(-c2nc3cc(C4=NN(C)C(=O)SC4)ccc3n2C2CCCCCC2)c1 [Example 12-7, 5-[1-cycloheptyl-2-(3-methoxyphenyl)-1H-benzimidazol-5-yl]-3-methyl-3,6-dihydro-2H-1,3,4-thiadiazin-2-one]",
6.4,,"COc1cc(-c2nc3cc(C4=NNC(=O)SC4C)ccc3[nH]2)ccc1[S+](C)[O-] (stereo not shown) [Example 26-3, 5-{2-[3-methoxy-4-(methylsulfinyl)phenyl]-1H-benzimidazol-5-yl}-6-methyl-3,6-dihydro-2H-1,3,4-thiadiazin-2-one hydrochloride]",34 % of the control
